Experimental data published in patent US9932314B2, “Pyrazole compounds and their use as T-type calcium channel blockers” (IDORSIA PHARMACEUTICALS LTD, priority 2015, dated 2018).

target: T1, voltage-dependent T-type calcium channel subunit alpha-1G (Cav3.2) (Homo sapiens, UniProt O95180); assay: FLIPR calcium flux assay, HEK293 cells recombinantly expressing Cav3.2; type: cell-based; conditions: Cav3.2-channel, Fluo-4-AM, 3 min incubation, stimulation with 10 mM CaCl2
T1 construct: expressed in transfected cells; host or cells: HEK293
Summary of the method: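 Calcium influx was triggered by adding CaCl2 to 10 mM final, 3 min after compounds in tetraethylammonium-based buffer, pH 7.2, reached Fluo-4-AM-loaded recombinant HEK293 cells. The integrated kinetic fluorescence signal per concentration gave concentration-response curves by non-linear sigmoidal regression.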

T1 sequence (O95180 whole entry): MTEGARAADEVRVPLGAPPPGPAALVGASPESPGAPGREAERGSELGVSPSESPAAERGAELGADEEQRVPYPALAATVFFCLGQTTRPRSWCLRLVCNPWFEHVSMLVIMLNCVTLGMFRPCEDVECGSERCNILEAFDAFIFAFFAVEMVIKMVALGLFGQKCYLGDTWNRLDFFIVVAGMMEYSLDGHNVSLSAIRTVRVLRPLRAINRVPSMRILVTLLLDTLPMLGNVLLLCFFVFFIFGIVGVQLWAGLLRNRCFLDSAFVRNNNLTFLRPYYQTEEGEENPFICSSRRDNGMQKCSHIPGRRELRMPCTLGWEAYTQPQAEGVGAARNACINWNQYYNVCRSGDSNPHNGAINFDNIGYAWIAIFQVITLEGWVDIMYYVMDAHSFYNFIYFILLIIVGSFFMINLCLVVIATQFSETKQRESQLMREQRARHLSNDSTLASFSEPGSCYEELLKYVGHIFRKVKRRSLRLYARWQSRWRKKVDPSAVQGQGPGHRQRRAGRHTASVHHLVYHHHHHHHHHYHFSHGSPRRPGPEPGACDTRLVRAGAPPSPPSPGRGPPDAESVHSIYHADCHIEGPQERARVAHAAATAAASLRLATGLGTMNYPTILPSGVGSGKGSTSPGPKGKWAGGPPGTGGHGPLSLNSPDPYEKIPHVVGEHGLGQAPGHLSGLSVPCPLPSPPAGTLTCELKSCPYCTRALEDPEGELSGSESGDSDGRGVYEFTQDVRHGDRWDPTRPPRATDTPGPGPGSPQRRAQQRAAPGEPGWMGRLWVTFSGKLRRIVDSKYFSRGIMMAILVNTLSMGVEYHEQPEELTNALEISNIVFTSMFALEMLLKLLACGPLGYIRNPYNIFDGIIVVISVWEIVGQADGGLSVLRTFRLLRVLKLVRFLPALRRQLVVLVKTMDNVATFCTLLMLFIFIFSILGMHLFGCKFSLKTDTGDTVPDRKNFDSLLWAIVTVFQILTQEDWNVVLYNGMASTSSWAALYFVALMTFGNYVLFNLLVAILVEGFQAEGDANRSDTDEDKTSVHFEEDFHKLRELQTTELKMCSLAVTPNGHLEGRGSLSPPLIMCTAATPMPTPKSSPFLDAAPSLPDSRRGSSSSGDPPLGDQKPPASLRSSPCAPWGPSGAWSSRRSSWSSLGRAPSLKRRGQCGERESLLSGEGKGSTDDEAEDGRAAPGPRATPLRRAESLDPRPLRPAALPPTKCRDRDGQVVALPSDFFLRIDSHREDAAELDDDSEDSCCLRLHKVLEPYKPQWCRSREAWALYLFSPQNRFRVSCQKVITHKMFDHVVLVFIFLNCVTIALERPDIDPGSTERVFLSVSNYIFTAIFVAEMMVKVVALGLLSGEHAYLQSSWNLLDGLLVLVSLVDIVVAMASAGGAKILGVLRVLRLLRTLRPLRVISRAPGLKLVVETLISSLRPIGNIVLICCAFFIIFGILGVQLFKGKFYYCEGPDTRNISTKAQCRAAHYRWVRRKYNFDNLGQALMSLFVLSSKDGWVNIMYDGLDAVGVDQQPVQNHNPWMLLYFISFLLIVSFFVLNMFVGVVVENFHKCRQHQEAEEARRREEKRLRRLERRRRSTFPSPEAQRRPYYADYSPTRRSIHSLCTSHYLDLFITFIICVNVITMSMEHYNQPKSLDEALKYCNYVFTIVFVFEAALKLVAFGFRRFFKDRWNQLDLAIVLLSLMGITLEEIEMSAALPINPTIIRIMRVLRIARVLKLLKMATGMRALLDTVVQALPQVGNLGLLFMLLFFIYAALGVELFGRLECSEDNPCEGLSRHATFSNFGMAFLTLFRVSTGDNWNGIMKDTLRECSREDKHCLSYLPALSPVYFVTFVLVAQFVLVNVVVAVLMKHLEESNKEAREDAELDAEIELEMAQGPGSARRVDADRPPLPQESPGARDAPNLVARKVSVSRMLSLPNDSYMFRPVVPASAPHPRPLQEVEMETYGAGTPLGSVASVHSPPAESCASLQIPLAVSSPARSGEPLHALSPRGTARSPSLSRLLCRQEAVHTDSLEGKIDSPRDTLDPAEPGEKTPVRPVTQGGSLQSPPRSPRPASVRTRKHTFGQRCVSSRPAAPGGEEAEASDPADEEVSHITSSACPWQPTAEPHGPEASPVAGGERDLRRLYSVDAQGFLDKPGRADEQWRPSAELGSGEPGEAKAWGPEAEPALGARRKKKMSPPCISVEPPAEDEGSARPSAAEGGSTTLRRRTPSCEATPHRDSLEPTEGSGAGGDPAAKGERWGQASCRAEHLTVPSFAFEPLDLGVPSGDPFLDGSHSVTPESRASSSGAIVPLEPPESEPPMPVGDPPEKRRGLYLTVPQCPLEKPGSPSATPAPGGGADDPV

SMILES | IC50 [nM]
COc1ccc(Cn2ccc(NC(=O)Cc3ccc(N4CC[C@H](F)C4)nc3)n2)cc1 [Example 156, 2-[6-((S)-3-Fluoro-pyrrolidin-1-yl)-pyridin-3-yl]-N-[1-(4-methoxy-benzyl)-1H-pyrazol-3-yl]-acetamide] | 179
O=C(Cc1ccc(N2CC[C@H](F)C2)nc1)Nc1ccn(Cc2ccc(F)cc2)n1 [Example 155, N-[1-(4-Fluoro-benzyl)-1H-pyrazol-3-yl]-2-[6((S)-3-fluoro-pyrrolidin-1-yl)-pyridin-3-yl]-acetamide] | 70
N#Cc1ccc(Cn2ccc(NC(=O)Cc3ccc(N4CC[C@@H](F)C4)cc3)n2)cc1 [Example 69, N-[1-(4-Cyano-benzyl)-1H-pyrazol-3-yl]-2-[4-((R)-3-fluoro-pyrrolidin-1-yl)-phenyl]-acetamide] | 16
Cc1ccc(Cn2ccc(NC(=O)Cc3ccc(C(C)C)cc3)n2)cc1 [Example 9, 2-(4-Isopropyl-phenyl)-N-[1-(4-methyl-benzyl)-1H-pyrazol-3-yl]-acetamide] | 12
O=C(Cc1ccc(N2CCC2)cc1)Nc1ccn(Cc2ccc(F)cc2)n1 [Example 53, 2-(4-Azetidin-1-yl-phenyl)-N-[1-(4-fluoro-benzyl)-1H-pyrazol-3-yl]-acetamide] | 6.7
COc1ccc(Cn2ccc(NC(=O)Cc3ccc(OC4CC4)cc3)n2)cc1 [Example 65, 2-(4-Cyclopropoxy-phenyl)-N-[1-(4-methoxy-benzyl)-1H-pyrazol-3-yl]-acetamide] | 74
COc1ccc(Cn2ccc(NC(=O)Cc3ccc(N(C)C)nc3)n2)cc1 [Example 14, 2-(6-Dimethylamino-pyridin-3-yl)-N-[1-(4-methoxy-benzyl)-1H-pyrazol-3-yl]-acetamide] | 650
O=C(Cc1ccc(OC2CCC2)cc1)Nc1ccn(Cc2ccc(F)cn2)n1 [Example 200, 2-(4-Cyclobutoxy-phenyl)-N-[1-(5-fluoro-pyridin-2-ylmethyl)-1H-pyrazol-3-yl]-acetamide] | 67
COc1ccc(Cn2ccc(NC(=O)Cc3ccc(N4CC(F)C4)nc3)n2)cc1 [Example 163, 2-[6-(3-Fluoro-azetidin-1-yl)-pyridin-3-yl]-N-[1-(4-methoxy-benzyl)-1H-pyrazol-3-yl]-acetamide] | 345
O=C(Cc1ccc(-c2cncnc2)cc1)Nc1ccn(Cc2ccc(F)cc2)n1 [Example 86, N-[1-(4-Fluoro-benzyl)-1H-pyrazol-3-yl]-2-(4-pyrimidin-5-yl-phenyl)-acetamide] | 140
CCN(CC)c1ccc(CC(=O)Nc2ccn(Cc3ccc(C#N)cc3)n2)cc1 [Example 114, N-[1-(4-Cyano-benzyl)-1H-pyrazol-3-yl]-2-(4-diethylamino-phenyl)-acetamide] | 14
N#Cc1ccc(Cn2ccc(NC(=O)Cc3ccc(N4CCC(F)(F)C4)nc3)n2)nc1 [Example 119, N-[1-(5-Cyano-pyridin-2-ylmethyl)-1H-pyrazol-3-yl]-2-[6-(3,3-difluoro-pyrrolidin-1-yl)-pyridin-3-yl]-acetamide] | 137
CC(C)c1ccc(CC(=O)Nc2ccn(Cc3ccc(C#N)cc3)n2)cc1 [Example 11, N-[1-(4-Cyano-benzyl)-1H-pyrazol-3-yl]-2-(4-isopropyl-phenyl)-acetamide] | 5.4
O=C(Cc1ccc(N2CCCC2)nc1)Nc1ccn(Cc2ccc(F)c(F)c2)n1 [Example 175, N-[1-(3,4-Difluoro-benzyl)-1H-pyrazol-3-yl]-2-(6-pyrrolidin-1-yl-pyridin-3-yl)-acetamide] | 17
N#Cc1ccc(Cn2ccc(NC(=O)Cc3ccc(N4CC[C@H](F)C4)nc3)n2)nc1 [Example 152, N-[1-(5-Cyano-pyridin-2-ylmethyl)-1H-pyrazol-3-yl]-2-[6-((S)-3-fluoro-pyrrolidin-1-yl)-pyridin-3-yl]-acetamide] | 1160
O=C(Cc1ccc(N2CC[C@H](F)C2)cc1)Nc1ccn(Cc2ccc(F)c(F)c2)n1 [Example 61, N-[1-(3,4-Difluoro-benzyl)-1H-pyrazol-3-yl]-2-[4-((S)-3-fluoro-pyrrolidin-1-yl)-phenyl]-acetamide] | 3.4
O=C(Cc1ccc(OCC(F)(F)F)cc1)Nc1ccn(Cc2ccc(F)cc2)n1 [Example 46, N-[1-(4-Fluoro-benzyl)-1H-pyrazol-3-yl]-2-[4-(2,2,2-trifluoro-ethoxy)-phenyl]-acetamide] | 26
COc1nc(Cn2ccc(NC(=O)Cc3ccc(C(C)C)cc3)n2)ccc1C#N [Example 116, N-[1-(5-Cyano-6-methoxy-pyridin-2-ylmethyl)-1H-pyrazol-3-yl]-2-(4-isopropyl-phenyl)-acetamide] | 75
O=C(Cc1ccc2c(c1)OCC(=O)N2)Nc1ccn(Cc2ccc(F)c(F)c2)n1 [Example 208, N-[1-(3,4-Difluoro-benzyl)-1H-pyrazol-3-yl]-2-(3-oxo-3,4-dihydro-2H-benzo[1,4]oxazin-7-yl)-acetamide] | 88
COc1c(F)cc(Cn2ccc(NC(=O)Cc3ccc(N(C)C)nc3)n2)cc1F [Example 43, N-[1-(3,5-Difluoro-4-methoxy-benzyl)-1H-pyrazol-3-yl]-2-(6-dimethylamino-pyridin-3-yl)-acetamide] | 82

Now from value to compound:

IC50 [nM] | SMILES
18 | O=C(Cc1ccc(-c2ncon2)cc1)Nc1ccn(Cc2ccc(F)c(F)c2)n1 [Example 236, N-[1-(3,4-Difluoro-benzyl)-1H-pyrazol-3-yl]-2-(4-[1,2,4]oxadiazol-3-yl-phenyl)-acetamide]
17 | Cc1cc(CC(=O)Nc2ccn(Cc3ccc(F)c(C#N)n3)n2)ccc1OC(F)(F)F [Example 410, N-[1-(6-Cyano-5-fluoro-pyridin-2-ylmethyl)-1H-pyrazol-3-yl]-2-(3-methyl-4-trifluoromethoxy-phenyl)-acetamide]
17 | Cn1ccc2cc(CC(=O)Nc3ccn(Cc4ccc(C#N)cc4)n3)ccc21 [Example 296, N-[1-(4-Cyano-benzyl)-1H-pyrazol-3-yl]-2-(1-methyl-1H-indol-5-yl)-acetamide]
14 | N#Cc1ccc(Cn2ccc(NC(=O)Cc3ccc(N4CCCC4)nc3)n2)cc1F [Example 275, N-[1-(4-Cyano-3-fluoro-benzyl)-1H-pyrazol-3-yl]-2-(6-pyrrolidin-1-yl-pyridin-3-yl)-acetamide]
37 | Cn1cc(C2CCC2)c2cc(CC(=O)Nc3ccn(Cc4ccc(F)c(C#N)c4)n3)ccc21 [Example 327, N-[1-(3-Cyano-4-fluoro-benzyl)-1H-pyrazol-3-yl]-2-(3-cyclobutyl-1-methyl-1H-indol-5-yl)-acetamide]
5 | Cn1ccc2ccc(CC(=O)Nc3ccn(Cc4ccc(F)c(F)c4)n3)cc21 [Example 221, N-[1-(3,4-Difluoro-benzyl)-1H-pyrazol-3-yl]-2-(1-methyl-1H-indol-6-yl)-acetamide]
2.1 | Cc1cc(CC(=O)Nc2ccn(Cc3ccc(F)c(C#N)n3)n2)ccc1OCC(F)(F)F [Example 391, N-[1-(6-Cyano-5-fluoro-pyridin-2-ylmethyl)-1H-pyrazol-3-yl]-2-[3-methyl-4-(2,2,2-trifluoro-ethoxy)-phenyl]-acetamide]
21 | Cn1ncc2ccc(CC(=O)Nc3ccn(Cc4ccc(F)c(F)c4)n3)cc21 [Example 224, N-[1-(3,4-Difluoro-benzyl)-1H-pyrazol-3-yl]-2-(1-methyl-1H-indazol-6-yl)-acetamide]
29 | Cc1nn(C)c2ccc(CC(=O)Nc3ccn(Cc4cc(F)c(C#N)c(F)c4)n3)cc12 [Example 348, N-[1-(4-Cyano-3,5-difluoro-benzyl)-1H-pyrazol-3-yl]-2-(1,3-dimethyl-1H-indazol-5-yl)-acetamide]
4.7 | N#Cc1ccc(Cn2ccc(NC(=O)Cc3ccc(C4CC(F)(F)C4)cc3)n2)cc1F [Example 288, N-[1-(4-Cyano-3-fluoro-benzyl)-1H-pyrazol-3-yl]-2-[4-(3,3-difluoro-cyclobutyl)-phenyl]-acetamide]
9480 | N#Cc1ccc(Cn2ccc(NC(=O)Cc3ccc(OCC4COC4)cc3)n2)nc1 [Example 287, N-[1-(5-Cyano-pyridin-2-ylmethyl)-1H-pyrazol-3-yl]-2-[4-(oxetan-3-ylmethoxy)-phenyl]-acetamide]
8 | CC(C)c1ccc(CC(=O)Nc2ccn(Cc3ccc(F)c(C#N)n3)n2)cc1 [Example 210, N-[1-(6-Cyano-5-fluoro-pyridin-2-ylmethyl)-1H-pyrazol-3-yl]-2-(4-isopropyl-phenyl)-acetamide]
69 | N#Cc1c(F)cc(Cn2ccc(NC(=O)Cc3ccc(C4(C(F)(F)F)CC4)cc3)n2)cc1F [Example 350, N-[1-(4-Cyano-3,5-difluoro-benzyl)-1H-pyrazol-3-yl]-2-[4-(1-trifluoromethyl-cyclopropyl)-phenyl]-acetamide]
66 | COC(C)c1ccc(CC(=O)Nc2ccn(Cc3ccc(F)c(C#N)c3)n2)cc1 (racemic) [Example 319, rac-N-[1-(3-Cyano-4-fluoro-benzyl)-1H-pyrazol-3-yl]-2-[4-(1-methoxy-ethyl)-phenyl]-acetamide]
15 | N#Cc1ccc(Cn2ccc(NC(=O)Cc3ccc(C4(C(F)(F)F)CC4)cc3)n2)cc1F [Example 265, N-[1-(4-Cyano-3-fluoro-benzyl)-1H-pyrazol-3-yl]-2-[4-(1-trifluoromethyl-cyclopropyl)-phenyl]-acetamide]
97 | N#Cc1ccc(Cn2ccc(NC(=O)Cc3ccc(C4(C#N)CC4)c(C(F)(F)F)c3)n2)nc1 [Example 403, 2-[4-(1-Cyano-cyclopropyl)-3-trifluoromethyl-phenyl]-N-[1-(5-cyano-pyridin-2-ylmethyl)-1H-pyrazol-3-yl]-acetamide]
37 | CC1(COc2ccc(CC(=O)Nc3ccn(Cc4ccc(F)c(F)c4)n3)cc2)CC(F)(F)C1 [Example 243, N-[1-(3,4-Difluoro-benzyl)-1H-pyrazol-3-yl]-2-[4-(3,3-difluoro-1-methyl-cyclobutylmethoxy)-phenyl]-acetamide]
251 | N#Cc1ccc(Cn2ccc(NC(=O)Cc3ccc(OCC4(F)COC4)cc3)n2)cc1 [Example 256, N-[1-(4-Cyano-benzyl)-1H-pyrazol-3-yl]-2-[4-(3-fluoro-oxetan-3-ylmethoxy)-phenyl]-acetamide]
